Laboratory results published in US11229634B2, “Methods for treating gastrointestinal disorders using FXR agonists” (Novartis AG, priority 2016, dated 2022).
≈ marks a conversion by molar mass, not a printed value. Entries after “also recorded” stand apart in the source; their conditions may differ.

How the values were obtained:
[1] = tested on: ANIT-induced cholestasis; assay: Chronic treatment rat ANIT model of cholestasis, serum markers; type: in vivo; settings: oral dosing 0.01 to 3 mg/kg
Experimental: Rats were treated with alpha-naphthyl-isothiocyanate (ANIT) (0.1% w/w) in food for 3 days prior to treatment with the compound at the indicated doses or with vehicle control (“Veh”). A non-cholestatic control group was fed standard chow diet without ANIT, and serve as the non-cholestatic control animals (“Control”), After […] days of oral dosing, the indicated analyte was measured in serum. LLQ, lower limit of quantitation. Mean±SEM; n=5.

[2] = tested on: ANIT-induced cholestasis; assay: PK/PD modeling of effective exposure in rat ANIT chronic treatment model; type: in vivo; settings: drug concentration producing 80% of maximum effect
Experimental: Male Wistar rats were treated with ANIT (0.1% ANIT in chow diet) for 2 weeks. […] The serum samples were collected on day 14 for analysis of biomarkers of hepatobiliary injury (including ALT, AST, bilirubin and bile acids). The PK samples (pre-dose, 0.5, 1, 3, 7, 10 and 24 h, n=3/dose group) were taken on day 13 (at steady-state). AUC0-24 h was determined using Phoenix WinNonlin 6.3 software and the average concentrations were calculated from mean of AUC0-24 h at each dose (divided the AUC0-24 h by 24 h). The mean biomarker data were compared to the PK data (average concentration at each dose) for the modeling. The IC80 was determined using the Inhibitory effect Imax model (effect C=0 at Imax, C=infinity at E0) built in Phoenix WinNonlin 6.3 software. […] Therefore, we chose to use a mean of the IC80 for the four biomarkers (total bilirubin, total bile acids, ALT and AST) as the IC80 for efficacy in this model. […]
The PK samples (pre-dose, 0.5, 1, 3, 7, 10 and 24 h, n=3/dose group) were taken on day 13 (at steady-state). AUC0-24 h was determined using Phoenix WinNonlin 6.3 software and the average concentrations were calculated from mean of AUC0-24 h at each dose (divided the AUC0-24 h by 24 h). […] The IC80 was determined using the Inhibitory effect Imax model (effect C=0 at Imax, C=infinity at E0) built in Phoenix WinNonlin 6.3 software.

[3] = Single oral dose plasma pharmacokinetics in healthy subjects; type: in vivo; settings: dose range 10 μg to 3000 μg, human
[4] = Multiple oral dose plasma pharmacokinetics in healthy subjects; type: in vivo; settings: human
[5] = Food effect (high-fat meal vs fasted) on pharmacokinetics; type: in vivo; settings: human
Experimental: To avoid variability in drug exposure, it is recommended that throughout the treatment period, patients will be directed to take study drug at home with ˜240 mL (8 ounces) of water in the morning in a fasting state, at least 30 min prior to the first beverage apart from water and 60 min prior to first meal of the day, preferably at the same time of the day.

[6] = Safety and tolerability in healthy subjects; type: in vivo, human; settings: repeated daily 100 μg; one ALT>ULN, one ALT>3×ULN, one ALT>5×ULN
[7] = Estimation of human efficacious dose from rat efficacious exposure and human PK; settings: human, plasma, oral, 6 μg; estimated, molar
Experimental: The human efficacy dose was calculated based on the efficacious exposure in the rat ANIT-induced disease model. Since the in vitro potency and protein binding between human and rat were similar, the EC80 exposure in human was assumed to be the same as that in rat (3.05 ng*h/mL),

[8] = tested on: FGF19; settings: single and repeated dosing, human
[9] = biological target: T1, FXR (Homo sapiens, UniProt Q96RI1); settings: clinical studies in PBC or NASH subjects; cited from earlier work
T1 construct: OCA was tested at doses between 5 mg and 50 mg in PBC subjects or NASH subjects; host or cells: human subjects (PBC, NASH), endogenous receptor
T1 sequence (Q96RI1 1-486): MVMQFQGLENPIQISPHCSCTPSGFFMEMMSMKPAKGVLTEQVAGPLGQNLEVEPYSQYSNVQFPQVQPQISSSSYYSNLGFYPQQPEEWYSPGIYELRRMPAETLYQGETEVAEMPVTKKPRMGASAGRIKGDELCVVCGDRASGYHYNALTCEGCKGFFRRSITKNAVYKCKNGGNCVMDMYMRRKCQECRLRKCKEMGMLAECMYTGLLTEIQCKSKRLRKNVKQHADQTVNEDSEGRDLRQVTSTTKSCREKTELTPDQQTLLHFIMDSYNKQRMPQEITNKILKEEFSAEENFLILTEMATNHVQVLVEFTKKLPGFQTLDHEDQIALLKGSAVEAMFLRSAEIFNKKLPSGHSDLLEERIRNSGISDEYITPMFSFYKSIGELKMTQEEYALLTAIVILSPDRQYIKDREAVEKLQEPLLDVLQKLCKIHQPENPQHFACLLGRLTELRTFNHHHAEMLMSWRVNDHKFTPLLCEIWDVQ

Structure (SMILES)	dose from which hepatobiliary injury indicators (AST, ALT, bilirubin, bile acids) improved [1] [mg/kg]	IC80, total bilirubin [2] [ng/mL]	dose dependence of mean Cmax and AUCinf [3]	dose dependence of Cmax and AUC (AUCtau/AUCinf), plasma exposure ([4]; multiple once daily doses, dose range 10 μg to 100 μg)	day by which steady-state was reached ([4]; once daily oral dosing 10-100 μg, trough levels) [days]	median Tmax, fasted state ([5]; fasted comparator of food effect) [h]	increase of mean AUCinf with high-fat meal compared to the fasted state [5]	increase of mean Cmax with high-fat meal compared to the fasted state [5]	subjects with elevation of transaminases (ALT and AST) [6] [subjects]	Cmax [7] [nM]	FGF19 response to dose [8]	side effect associated with treatment [9]
O=C(O)c1cc(F)c2nc(N3C4CC[C@H]3CC(OCc3c(-c5ccccc5OC(F)(F)F)noc3C3CC3)C4)sc2c1 (stereo partly drawn) [Compound A, 2-[(1R,3r,5S)-3-({5-cyclopropyl-3-[2-(trifluoromethoxy)phenyl]-1,2-oxazol-4-yl}methoxy)-8-azabicyclo[3.2.1]octan-8-yl]-4-fluoro-1,3-benzothiazole-S-carboxylic acid]	0.01	0.223 (≈ 0.369 nM)	approximately dose proportional increase	approximately dose-proportional increase; also recorded: approximately dose proportional increase	≤ 4	4	approximately 60%	approximately 60%	3	~0.3	dose-dependent increases in FGF19	–
CC[C@H]1[C@@H](O)[C@@H]2[C@H](CC[C@]3(C)[C@@H]([C@H](C)CCC(=O)O)CC[C@@H]23)[C@@]2(C)CC[C@@H](O)C[C@@H]12 [OCA, 6α-ethyl-chenodeoxycholic acid]	–	–	–	–	–	–	–	–	–	–	–	increased pruritus
